The test system of experiment [1] is intraocular pressure. Nature of the experiment: Intraocular pressure in dogs, applanation pneumatonometry. It is filed as in vivo. The note with it: for reduced the intraocular pressure (IOP) by: 25 μl to the ocular surface, IOP at 6 hours. As for the experimental part:
The compounds were prepared at the said concentrations in a vehicle comprising 0.1% polysorbate 80 and 10 mM TRIS base. Dogs were treated by administering 25 μl to the ocular surface, the contralateral eye received vehicle as a control. Intraocular pressure was measured by applanation pneumatonometry. Dog intraocular pressure was measured immediately before drug administration and at 6 hours thereafter.

The subject of experiment [2] is intraocular pressure. Kind of experiment: Intraocular pressure in glaucomatous cynomolgus monkeys. The format is in vivo, glaucomatous cynomonlgus monkey.

As for `CCCCC[C@H](O)/C=C/[C@H]1[C@H](O)CC(=O)[C@@H]1SCCCSCC(=O)O` [Compound 9, {3-[(1R,2S,3R)-3-Hydroxy-2-((S)-(E)-3-hydroxyoct-1-enyl)-5-oxocyclopentyl-sulfanyl]propylsulfanyl}acetic acid], the “reduced the intraocular pressure (IOP) by” value in experiment [1] (dose of 0.01% w/v) turned out to be 45%; in experiment [1] (dose of 0.1% w/v), 50%. Also, the ocular hypotensive effect result in experiment [1] (topical ocular, 25 μl) was “pronounced ocular hypotensive effect”.

Consider `CCCCC[C@H](O)/C=C/[C@H]1[C@H](O)CC(=O)[C@@H]1SCCCSCC(=O)OC(C)C` [Compound 10, {3-[(1R,2S,3R)-3-Hydroxy-2-((S)-(E)-3-hydroxyoct-1-enyl)-5-oxocyclopentyl-sulfanyl]propylsulfanyl}acetic acid isopropyl ester], for which the “effect on IOP” value in experiment [2] (glaucomatous cynomonlgus monkey, dose of 0.01% w/v) is recorded as “reduced the IOP”. The ocular hypotensive effect result in experiment [2] (glaucomatous cynomonlgus monkeys) was “pronounced ocular hypotensive effect”.

The values are drawn from patent US6410591B1, “3,7 or 3 and 7 thia or oxa prostanoic acid derivatives as agents for lowering intraocular pressure” (Allergan Sales, Inc., priority 2001, dated 2002).
